Reference: patent US20220079993A1, “NON-NATURALLY OCCURRING THERMOGENIC ADIPOCYTES, METHODS OF MAKING, AND METHODS OF USE THEREOF” (University of Georgia Research Foundation, Inc., priority 2019, published 2022)
Read-outs that look alike come from different tables or passages of the source.

Assays:
Type in all cases: cell-based, human
beige adipocytes [1] = test: High-throughput primary screen, lipolysis assay (glycerol release), 384-well; settings: 20 μM, 24 hours of drug treatment, vs untreated beige adipocytes
Procedure: ADSCs were seeded at 5000 cell/cm^2 in 12-well plates, grown for 5 days and then induced to differentiate into GC for 20 days. […] Cells were treated with forskolin (20 μM) for indicated time periods and supernatant samples were collected. Lipolysis assay was performed with free glycerol reagent (Sigma, F6428-40ML), according to manufacturer instructions.
ADSCs were plated in 384-well plates at a density of 5000 cell/cm2 and grown to confluency over ˜4 days. Cells were then differentiated to beige adipocytes using B-8 medium for 21 days. All cell culture and incubations in the 384-well format were done at 37° C. and 5% CO2. […] The use of FDA-approved drugs may allow for re-purposing for therapeutic use.
Lipolysis assays were performed after 24 hours of drug treatment by measuring free glycerol released in the 384-well format, using the procedure described above. Absorbance for each compound was normalized to untreated control samples for each plate and calculated as a percent of the control. Cut-offs for “activating” and “inhibiting” compounds were set at 2-fold. Validation assays were performed for select compounds at a range of concentration doses.

GC = test: Lipolysis assay (free glycerol) after forskolin
Procedure: ADSCs were seeded at 5000 cell/cm^2 in 12-well plates, grown for 5 days and then induced to differentiate into GC for 20 days. Prior to the assay, cells were washed in DPBS twice and then incubated with DMEM with 2% fatty-acid free BSA (Santa Crus, sc-500949) and Triascin C (5 μM). Cells were treated with forskolin (20 μM) for indicated time periods and supernatant samples were collected. Lipolysis assay was performed with free glycerol reagent (Sigma, F6428-40ML), according to manufacturer instructions.

beige adipocytes [2] = test: Lipolysis validation assays of primary hits at three concentrations; settings: Homo sapiens, Adipocyte, 24 h; for activity at 2.2 µM: Conc. 2.2 µM; for activity at 6.7 µM: Conc. 6.7 µM; for activity at 20 µM: Conc. 20 µM; for activity at 2200 µM: Conc. 2.2 mM
Summary of the method: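 ADSC-derived adipocytes, differentiated 20 days, incubated in DMEM with 2% fatty-acid-free BSA and Triacsin C (5 μM). Glycerol release measured after 24 h compound treatment at three concentrations, normalised to untreated control as percent; 2-fold cut-offs defined activators and inhibitors.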

UCP1 = test: qRT-PCR of UCP1 transcript in beige adipocytes -/+ forskolin; settings: beige adipocytes stimulated with FSK (20 uM)
Procedure: FIG. 2A is a bar graph showing RNA expression levels by qRT-PCR for indicated genes (UCP1, DIO2) for adipose derived stem cells (ADSCs), GlucoCytes (GC), or GC with forskolin (FSK, 20 uM). FIG. 2B is a bar graph showing quantitation of immunostaining data (UCP1) from 6 independent fields of view. FIGS. 2C and 2D are bar graphs showing qRT-PCR of UCP1 of GC induced from an additional line purchased from ThermoFisher (2C) and an immortalized ADSC line purchased from ATCC (ASC52-telo) (2D). Transcript levels were determined by qRT-PCR. n=3 for each independent replicate. Data are mean+/−standard deviation. *P<0.0.05, **P<0.01, ***P<0.005. […] Cell lysates were collected at indicated days and RNA was isolated and analyzed by qRT-PCR for marker expression. […] Each line was differentiated for 21 days to beige adipocytes using B-8 medium and transcript levels of UCP1 (2Q), PPARGC1 (2R), IRF4 (2S), and ADIPOQ (2T) were measured by Taqman qRT-PCR for indicated genes +/−FSK for 6 hours (20 μM).
Cells were washed with DPBS, lysed directly on the plate and used for RNA isolation with the E.Z.N.A Total RNA Kit (Omega, R6834-02) according to manufacturer instructions. RNA quantitation was performed with the Biotek Synergy 2 plate reader and cDNA was synthesized using 1 ug of RNA with the iScript cDNA Synthesis Kit (Bio-Rad, 1708841). […]

C=C[C@@]1(C)CC(=O)[C@]2(O)[C@@]3(C)[C@@H](O)CCC(C)(C)[C@@H]3[C@H](O)[C@H](OC(C)=O)[C@@]2(C)O1 [Forskolin]
% Control (relative levels of glycerol release) (beige adipocytes [1]): 262.31 % control | Increase in free glycerol in the media (GC; 4 hours of FSK (20 μM)): ~2 fold | Increase in free glycerol in the media (GC; 8 hours of FSK (20 μM)): ~5 fold | activity at 2.2 µM (beige adipocytes [2]; read-out: % of Control (2)): 394% | activity at 2.2 µM (beige adipocytes [2]; read-out: % of Control (4)): 247% | activity at 6.7 µM (beige adipocytes [2]; read-out: % of Control (1)): 311% | activity at 6.7 µM (beige adipocytes [2]; read-out: % of Control (2)): 362% | activity at 6.7 µM (beige adipocytes [2]; read-out: % of Control (3)): 241% | activity at 6.7 µM (beige adipocytes [2]; read-out: % of Control (4)): 242% | activity at 20 µM (beige adipocytes [2]; read-out: % of Control (1)): 417% | activity at 20 µM (beige adipocytes [2]; read-out: % of Control (2)): 330% | activity at 20 µM (beige adipocytes [2]; read-out: % of Control (3)): 253% | activity at 20 µM (beige adipocytes [2]; read-out: % of Control (4)): 267% | activity at 2200 µM (beige adipocytes [2]; read-out: % of Control (1)): 417% | activity at 2200 µM (beige adipocytes [2]; read-out: % of Control (3)): 252% | UCP1 transcript level compared to ADSCs (UCP1): 520 fold
